According to ChEMBL document CHEMBL4190217, “Botrysphones A-C and Botrysphins A-F, Triketides and Diterpenoids from the Fungus Botrysphaeria laricina” (J Nat Prod, 2017):

Assays:
Type in all cases: cell-based
[1] = Cytotoxicity against mouse Hepa1c1c7 cells assessed as reduction in cell viability by MTT assay; details: Hepa-1c1c7
[2] = Cytotoxicity against mouse Hepa1c1c7 cells assessed as reduction in cell viability at 2.5 uM by MTT assay
[3] = Cytotoxicity against mouse Hepa1c1c7 cells assessed as reduction in cell viability at 0.125 uM by MTT assay

SMILES: C=C[C@@]1(C)CCC2=C(C(=O)C(O)=C3C(C)(C)CCC[C@]23C(=O)O[C@H]2C(=O)C=C(OC)[C@@H](O)[C@H]2O)[C@H]1O
- IC50 [1]: 45.3 µM
- Activity [2]: Non-Toxic

SMILES: COC1=CC(=O)[C@@H]2O[C@@H]2[C@@H]1O
- IC50 [1]: > 50 µM

SMILES: C=C[C@]1(C)C=C2[C@@H](O)[C@@]3(O)OC(=O)[C@@]4(CCCC(C)(C)[C@H]34)[C@@]2(O)CC1 [SPHAEROPSIDIN B]
- IC50 [1]: > 50 µM

SMILES: C=C[C@]1(C)C=C2C(=O)[C@@]3(O)OC(=O)[C@@]4(CCCC(C)(C)[C@H]34)[C@@]2(O)CC1 [SPHAEROPSIDIN A]
- IC50 [1]: 2.1 µM
- Activity [3]: Non-Toxic

SMILES: C[S+]([O-])CCCCN=C=S (centres undefined) [SULFORAPHANE]
- IC50 [1]: 15.7 µM

SMILES: COC1=CC(=O)[C@H](Cl)[C@H](O)[C@@H]1O
- IC50 [1]: > 50 µM

SMILES: C=C[C@@]1(C)CC(=O)C2=C(CC[C@H]3C(C)(C)CCC[C@]23C)[C@H]1O
- IC50 [1]: > 50 µM
